Data published in patent US6720344B2, “Methods and compositions for stimulating osteoblast proliferation or treating malignant cell proliferation and methods for selecting osteoblast proliferation stimulants” (The Board of Regents of the University of Texas System, priority 1996, dated 2004).

Key:
[1] = system: BMP-2 promoter; experiment: BMP-2 promoter luciferase assay in 2T3 cells (Example 1); assay type: cell-based, murine
Source text: Such activity may be determined using any one of a number of methods known to the skilled artisan, such as by using the luciferase promoter assay described in Example 1. […] Since BMP-2 luciferase promoter constructs were transfected into immortalized murine osteoblasts (2T3 cells), the stimulation of luciferase activity is reasonably correlated to a osteoblast proliferation stimulation activity as recognized by those of ordinary skill in the art.
This technique has been described in the scientific literature [Ghosh-Choudhury, N.; Windle, J; J.; Koop, B. A.; Harris, M. A.; Guerrero, D. L.; Wozney, J. M.; Mundy, G. R.; Harris, S. E.; “Immortalized Murine Osteoblasts Derived from BMP 2-T-Antigen Expressing Transgenic Mice” Endocrinology (1996) 137, 331-339]. […]
Immortalized murine osteoblasts (2T3 cells) containing a bone morphogenetic protein 2 (BMP-2) promoter fragment are isolated from the calvaria of transgenic mice and cloned. […] Employing this BMP-2 promoter assay as an additional screening technique, the ED50 of compounds that stimulate luciferase activity, and, by inference, osteoblast proliferation, can be further assessed. […]
The transfection is carried out by the calcium phosphate precipitation technique. […] Luciferase enzyme activity can be measured in 15 different clonal cell lines. […] Luciferase activity is measured using a kit from Promega and a luminometer.

| EC50 ([1]; assay conditions of Example 1, stimulation of luciferase activity, read-out: ED50 in the promoter assay) [nM] | melting point [°C] | Structure (SMILES) | production of luciferase action / BMP-2 promoter activity, in words ([1]; assay for BMP-2 promoter activity, compared to control) |
| --- | --- | --- | --- |
| ~100 | – | COc1ccc(C(=O)Nc2nc3ccccc3s2)cc1 [2-(4-methoxybenzoyamino)-1,3-benzthiazole, reference compound] | – |
| – | 123 to 124 | CC(C)Oc1ccc2c(c1)Cc1ccccc1C2=O [anthrone, 3-i-propoxyanthrone] | reduced pharmacological activity |
